Reference: ChEMBL document CHEMBL2086317, “Synthesis and Agonistic Activity at the GPR35 of 5,6-Dihydroxyindole-2-carboxylic Acid Analogues” (ACS Med Chem Lett, 2012)
Calls of active or inactive are those of the source. No cut-off for these calls is given here.

Columns and labels:
Format in all cases: functional, cell-based
[1] = target: T1, G-protein coupled receptor 35 (Homo sapiens, UniProt Q9HC97); assay: Agonist activity at GPR35 in human HT-29 cells measured after 10 mins by dynamic mass redistribution assay
[2] = target: T1, G-protein coupled receptor 35; assay: Agonist activity at human GPR35 expressed in U2OS cells coexpressing Gal4-VP16/beta-arrestin fusion protein after 5 hrs by tango beta-arrestin translocation reporter gene assay
[3] = target: T1, G-protein coupled receptor 35; assay: Agonist activity at human GPR35 expressed in U2OS cells coexpressing Gal4-VP16/beta-arrestin fusion protein after 5 hrs by tango beta-arrestin translocation reporter gene assay relative to zaprinast
[4] = target: T1, G-protein coupled receptor 35; assay: Agonist activity at GPR35 in human HT-29 cells at 64 uM measured after 10 mins by dynamic mass redistribution assay in presence of SPB05142
[5] = target: T1, G-protein coupled receptor 35; assay: Agonist activity at GPR35 in human HT-29 cells at 32 uM measured after 10 mins by dynamic mass redistribution assay in presence of SPB05142
[6] = target: T1, G-protein coupled receptor 35; assay: Agonist activity at human GPR35 expressed in U2OS cells coexpressing Gal4-VP16/beta-arrestin fusion protein at 100 uM after 5 hrs by tango beta-arrestin translocation reporter gene assay in presence of ML145
[7] = target: T1, G-protein coupled receptor 35; assay: Agonist activity at GPR35 in human HT-29 cells at 1 uM measured after 10 mins by dynamic mass redistribution assay in presence of SPB05142

T1 sequence (Q9HC97 whole entry, the tested form may be a part): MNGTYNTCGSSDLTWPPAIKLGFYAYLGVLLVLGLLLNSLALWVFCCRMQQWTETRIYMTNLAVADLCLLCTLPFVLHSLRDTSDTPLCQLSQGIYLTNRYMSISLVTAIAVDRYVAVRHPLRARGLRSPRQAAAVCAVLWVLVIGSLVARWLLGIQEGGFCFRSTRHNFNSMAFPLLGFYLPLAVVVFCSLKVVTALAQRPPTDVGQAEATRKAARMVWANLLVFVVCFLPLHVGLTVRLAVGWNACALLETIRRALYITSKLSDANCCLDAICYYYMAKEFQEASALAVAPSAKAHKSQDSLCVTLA

SMILES | EC50 ([1]; read-out: EC50) [µM] | EC50 ([2]; u2os) | Efficacy [3] [%] | EC50 ([2]; read-out: EC50) [µM] | other results
O=C(O)c1[nH]c2cc(O)c(O)cc2c1-c1ccccc1 | 20.2 | Not Active | – | – | –
O=C(O)c1cc2cc(O)c(O)cc2[nH]1 | 23.6 | – | 75 | 23.2 | –
CCn1c(C(=O)O)cc2cc(O)c(O)cc21 | 77.1 | – | 52 | 45.7 | –
O=C(O)c1ccc(-c2c(C(=O)O)[nH]c3cc(O)c(O)cc23)cc1 | 22.6 | – | 40 | 10.8 | –
O=C(O)c1[nH]c2cc(O)c(O)cc2c1-c1ccc(Cl)cc1 | 2.54 | – | 89 | 387 | –
Cc1ccc(C(=O)Cn2c(C(=O)O)cc3cc(O)c(O)cc32)cc1 | 39.7 | Not Active | – | – | –
O=C(O)c1cccc(-c2c(C(=O)O)[nH]c3cc(O)c(O)cc23)c1 | 24.9 | – | 17 | 75.7 | –
O=C(O)c1[nH]c2cc(O)c(O)cc2c1-c1cc(F)cc(F)c1 | 4.36 | – | 48 | 109 | –
Cc1c(C(=O)O)oc2cc(O)c(O)cc12 | 16.2 | – | 27 | 133 | Activity [4]: inactive
Cn1c(C(=O)O)cc2cc(O)c(O)cc21 | 64.2 | – | 85 | 45.4 | –
O=C(Cn1c(C(=O)O)cc2cc(O)c(O)cc21)c1ccccc1 | 43.7 | Not Active | – | – | –
O=C(O)c1cc2cc(O)c(O)cc2s1 | 7.35 | – | 86 | 520 | Activity [5]: inactive
O=C(O)c1[nH]c2cc(O)c(O)cc2c1-c1cccnc1 | 84 | Not Active | – | – | –
O=C(O)c1[nH]c2cc(O)c(O)cc2c1-c1cccc(Cl)c1 | 2.48 | – | 19 | 34.4 | –
O=C(O)Cn1c(C(=O)O)cc2cc(O)c(O)cc21 | – | Not Active | – | – | EC50 ([1]; ht-29): Not Active
O=C(O)c1[nH]c2cc(O)c(O)cc2c1-c1cc(Cl)cc(Cl)c1 | 1.06 | – | 25 | 24.2 | –
O=C(O)c1[nH]c2cc(O)c(O)cc2c1Br | 4.1 | – | 48 | 166 | –
O=C(O)c1cc2cc(O)c(O)cc2n1Cc1ccccc1 | 43.5 | Not Active | – | – | –
Cc1c(C(=O)O)sc2cc(Br)c(O)c(Br)c12 | 0.16 | – | 94 | 46.5 | Activity [6]: inactive; Activity [7]: inactive
Cc1ccc(Cn2c(C(=O)O)cc3cc(O)c(O)cc32)cc1 | 17.3 | – | > 25 | > 500 | –
O=C(O)c1[nH]c2cc(O)c(O)cc2c1-c1ccc(C(F)(F)F)cc1 | 12.9 | Not Active | – | – | –
Cc1c(C(=O)O)sc2cc(O)c(O)cc12 | 6.17 | – | 109 | 90.6 | Activity [5]: inactive
O=C(O)c1[nH]c2cc(O)c(O)cc2c1-c1ccsc1 | 10.3 | – | 18 | 61.2 | –
